According to patent US8129425B2, “Small organic molecule regulators of cell proliferation” (Curis, Inc., priority 2000, dated 2012):
pEC50: −log10 of the molar value.

What follows are compounds tested on cerebellar neuron precursors (assay: Cerebellar neuron precursor proliferation (3H-thymidine incorporation)). Conditions: absence of Hh protein treatment.
Assay type: cell-based, rat
Description: In order to test the efficacy of Hedgehog signaling agonists, the ability of the agonists to stimulate the proliferation of cerebellar neuron precursors was determined. Cerebellar granule neuron precursors are known to respond to Hh protein by proliferating. To test the agonists, cerebellar neurons were dissected out of postnatal (one week) rat brains, and placed into primary cell culture. Treatment agents were added once, on the first day of culture (0 DIV). Cells were left in culture until 2 DIV, when 3H-thymidine was added for 5 hours; the amount of incorporation by the cells of this 3H-thymidine provides a measure of the level of proliferation of the cells. Cells were then lysed, and the incorporation of 3H-thymidine was determined. The positive control was Hh protein, at 1.0 μg/ml final concentration. Hh protein alone caused approximately a 20-fold increase in 3H-thymidine incorporation, consistent with the known ability of Shh to stimulate proliferation of these cells. Non-Hh-protein-stimulated cells, including cells treated with control vehicle (DMSO), had very low levels of proliferation. […] At 5.0 μM, the p-cyanophenyl compound B caused 10.2-fold induction of 3H-thymidine incorporation. […] At 1.0, 0.3, or 0.1 μM, D caused 16-, 17-, or 13-fold induction, respectively, of 3H thymidine incorporation into the cells.
With COc1ccc(CN(C(=O)c2sc3ccccc3c2Cl)C2CCC(N)CC2)cc1-c1cccc([N+](=O)[O-])c1 (stereo not drawn) [A] the “stimulation of 3H-thymidine incorporation” value was “significantly stimulate 3H-thymidine incorporation”.

Each compound was assayed on Gli-1 (assay: Quantitative RT-PCR (TaqMan) of Gli-1 transcript in C3H 10T1/2 cells). Conditions: compound concentration 8 μM.
Assay type: cell-based, Murine
Description: (§1) The compounds of FIGS. 32 and 33 were tested for their ability to activate transcription of two well-studied targets of the Hedgehog pathway: the transcription factor Gli-1, and the putative Hedgehog receptor component Ptc-1.
(§2) Murine C3H 10T1/2 cells were seeded at approximately 200,000 cells per well in a 24-well plate in complete medium (10% FBS). After 24 hr, medium was removed and replaced with “starvation” medium (0.5% FBS) containing dilutions of compound or Hh protein. After 16-18 hr, total RNA was prepared using TriZol (Life Technologies, inc.).
(§3) One-microgram aliquots of total RNA were used to prepare random hexamer-primed cDNA with […] Reverse transcriptase (Life Technologies, Inc.).
(§4) To measure the relative levels of Gli-1 and Ptc-1 transcripts, TaqMan assays (PE Biosystems) were performed with an ABI Prism 7700 Sequence Detection System. As an internal control, GAPDH transcript levels were simultaneously measured in each reaction. Data were analyzed using Sequence Detector v 1.6.3 (Perkin Elmer).
With COc1ccc(CN(C(=O)c2sc3ccccc3c2Cl)C2CCC(N)CC2)cc1-c1cccc([N+](=O)[O-])c1 (stereo not drawn) [A] the “induction of Gli-1 relative to that obtained with the optimal concentration of Hh protein” value was about 40%.

Each compound was assayed on Ptc-1 (assay: Quantitative RT-PCR (TaqMan) of Ptc-1 transcript in C3H 10T1/2 cells). Conditions: compound concentration 8 μM.
Assay type: cell-based, Murine
Description: as §1, §2, §3, §4
With COc1ccc(CN(C(=O)c2sc3ccccc3c2Cl)C2CCC(N)CC2)cc1-c1cccc([N+](=O)[O-])c1 (stereo not drawn) [A] the “induction of Ptc-1 relative to that obtained with the optimal concentration of Hh protein” value was about 40%.

The compounds below were run on hedgehog-responsive Gli-Luc reporter-construct (assay: Gli-Luc hedgehog pathway reporter assay in [10T1/2(s12)] cells). Conditions: Table 1.
Assay type: cell-based, murine
Description: To measure the hedgehog agonist activity of compounds, we used [10T1/2(s12)] cells containing the hedgehog-responsive Gli-Luc reporter-construct. In each MTP (MicroTiter Plate; 96-well plate), 10,000-20,000 cells were plated per well, in full media (10% FBS). After about 24-48 hr, plates were switched to low-serum media (=0.5%. FBS). Subsequently, a test compound was added at 1-5 μM in the presence or absence of octyl-hedgehog (see below). After another 24 hr, the media from the MTPs was discarded and replaced with luciferase assay-mix, containing lysis-buffer with luciferase substrate. The plates were incubated at RT for about 15-30 min and read in a luminometer.
Plates were incubated for 48 hr before switching to low-serum. Compounds were screened at 1-2 μM in the presence of Hh protein (0.01 μg/ml; EC30=about 30% of max-induced activity).
Plates were incubated for 24 hr before switching to low-serum. Compounds were screened at 5 μM without adding Hh protein.
From Screen A, we identified hits identified in FIGS. 32 and 33. The 1,4-diaminocyclohexane subunit of the compounds of FIG. 32 which include this moiety have the two amino substituents disposed in a trans-relationship, e.g., both substituents equatorial on the cyclohexane subunit. These hits were confirmed in Screen B. The data shown in FIGS. 34a and 34b essentially involved dosing the two compounds in both assays (Gli-Luc & SV-Luc).
The data from the Gli-Luc assay is converted to percent activity where full activity with Hh protein is set at 100% (FIG. 35; Table 1). […] Furthermore, the compounds show a more striking induction in the presence of hedgehog (EC50=0.2-0.3 μM, ECmax=70-90% of max induced activity with Hh protein), indicating a synergy between the compounds and Hh protein, consistent with the compounds serving as agonists for the hedgehog pathway.
For COc1ccc(CN(C(=O)c2sc3ccccc3c2Cl)C2CCC(N)CC2)cc1-c1cccc(C#N)c1 (stereo not drawn) [X], the pEC50 was over 5.00. In the case of CN[C@H]1CC[C@H](N(Cc2cc(-c3ccc(C#N)cc3)cs2)C(=O)c2sc3ccccc3c2Cl)CC1 [G′′], the pEC50 was over 7.00. With NC1CCC(N(Cc2cc(-c3ccc(F)cc3)cs2)C(=O)c2sc3ccccc3c2Cl)CC1 (stereo not drawn) [J] the pEC50 was over 6.00. In the case of CN[C@H]1CC[C@H](N(Cc2cccc(-c3ccc(N(C)C)nc3)c2)C(=O)c2sc3ccccc3c2Cl)CC1 [H′′], the pEC50 was over 7.00. With CN[C@H]1CC[C@H](N(Cc2ccc3c(c2)CCO3)C(=O)c2sc3ccccc3c2Cl)CC1 [E′′] the pEC50 was over 5.00. CN[C@H]1CC[C@H](N(Cc2cccc(-c3ccc(C#N)cc3)c2)C(=O)c2sc3ccccc3c2Cl)CC1 [I′] showed a pEC50 of over 6.00. Compound COc1ccc(CN(C(=O)c2sc3ccccc3c2Cl)C2CCC(N)CC2)cc1-c1cccnc1 (stereo not drawn) [Y] has a pEC50 of over 5.00. In the case of CN[C@H]1CC[C@H](N(Cc2ccc(OC)c(-c3ccc(C#N)cc3)c2)C(=O)c2sc3sccc3c2Cl)CC1 [L′′′], the pEC50 was over 5.30. Work on COc1ccc(CN(C(=O)c2sc3ccccc3c2Cl)C2CCC(O)CC2)cc1-c1ccc(C#N)cc1 (stereo not drawn) [A′] yielded a pEC50 of over 5.00. Compound CN[C@H]1CC[C@H](N(Cc2cccc(-c3ccc(S(=O)(=O)NC(C)=O)s3)c2)C(=O)c2sc3ccccc3c2Cl)CC1 [O′′] has a pEC50 of over 6.00. Compound CN[C@H]1CC[C@H](N(Cc2ccc(OC)c(-c3ccc(C#N)cc3)c2)C(=O)c2sc3c(F)cc(F)cc3c2Cl)CC1 [F′′′] has a pEC50 of over 7.30. Compound COc1ccc(CN(C(=O)c2sc3ccccc3c2Cl)[C@H]2CC[C@H](N)CC2)cc1-c1ccsc1 [C′] has a pEC50 of over 5.00. CN[C@H]1CC[C@H](N(Cc2cccc(C#N)c2)C(=O)c2sc3ccccc3c2Cl)CC1 [Z′] was tested, and the pEC50 was over 5.00. CNC1CCC(N(Cc2ccc(OC)c(I)c2)C(=O)c2sc3ccccc3c2Cl)CC1 (stereo not drawn) [U] showed a pEC50 of over 5.00. For CN[C@H]1CC[C@H](N(Cc2cccc(-c3ccc(S(=O)(=O)n4c(C)ccc4C)s3)c2)C(=O)c2sc3ccccc3c2Cl)CC1 [R′′], the pEC50 was over 6.00. In the case of COc1ccc(CN(C(=O)c2sc3ccccc3c2Cl)[C@H]2CC[C@H](N)CC2)cc1Br [H′], the pEC50 was under 5.00. NC1CCC(N(Cc2ccc(-c3nccs3)cc2)C(=O)c2sc3ccccc3c2Cl)CC1 (stereo not drawn) [F] showed a pEC50 of over 5.00. In the case of CN[C@H]1CC[C@H](N(Cc2cccc(-c3nccnc3C)c2)C(=O)c2sc3ccccc3c2Cl)CC1 [U′], the pEC50 was over 6.00. COc1ccc(CN(C(=O)c2sc3ccccc3c2Cl)C2CCC(N)CC2)cc1-c1ncccn1 (stereo not drawn) [I] gave a pEC50 of under 5.00. For CN[C@H]1CC[C@H](N(Cc2cccc(-c3ccncc3)c2)C(=O)c2sc3ccccc3c2Cl)CC1 [H′′′], the pEC50 was over 7.30. Compound COc1ccc(-c2cc(CN(C(=O)c3sc4ccccc4c3Cl)C3CCC(N)CC3)ccc2OC)cc1 (stereo not drawn) [K] has a pEC50 of over 6.00. CN[C@H]1CC[C@H](N(Cc2ccc(OC)c(-c3ccc(C#N)cc3)c2)C(=O)c2sc3ccccc3c2C)CC1 [K′] was tested, and the pEC50 was over 5.00. Work on CN[C@H]1CC[C@H](N(Cc2cccc(-c3ccc(S(=O)(=O)NC(C)(C)C)s3)c2)C(=O)c2sc3ccccc3c2Cl)CC1 [L′′] yielded a pEC50 of over 6.00. Cc1ccc(-c2cccc(CN(C(=O)c3sc4ccccc4c3Cl)C3CCC(N)CC3)c2)cn1 (stereo not drawn) [T] gave a pEC50 of over 5.00. CN[C@H]1CC[C@H](N(Cc2cc(-c3ccncc3)cs2)C(=O)c2sc3cccc(F)c3c2Cl)CC1 [A′′′] gave a pEC50 of over 7.30. CN[C@H]1CC[C@H](N(Cc2cccc(-c3nccs3)c2)C(=O)c2sc3ccccc3c2Cl)CC1 [B′′] was tested, and the pEC50 was over 5.00. CNC1CCC(N(Cc2ccc(C)c(-c3ccc(C#N)cc3)c2)C(=O)c2sc3ccccc3c2Cl)CC1 (stereo not drawn) [Compound S] gave a pEC50 of over 6.00. With CN[C@H]1CC[C@H](N(Cc2cc(-c3ccncc3)cs2)C(=O)c2sc3c(F)ccc(F)c3c2Cl)CC1 [W′′] the pEC50 was over 8.30. Work on COc1ccc(CN(C(=O)c2sc3ccccc3c2Cl)C2CCC(N)CC2)cc1-c1ccc(C(C)=O)cc1 (stereo not drawn) [H] yielded a pEC50 of over 6.00. CNC1CCC(N(Cc2cccc(-c3cnccn3)c2)C(=O)c2sc3ccccc3c2Cl)CC1 (stereo not drawn) [P] gave a pEC50 of over 6.00. CN[C@H]1CC[C@H](N(Cc2scc(-c3cccnc3)c2C)C(=O)c2sc3ccccc3c2Cl)CC1 [A′′] was tested, and the pEC50 was over 5.00. CN[C@H]1CC[C@H](N(Cc2ccnc(-c3ccc(S(N)(=O)=O)s3)c2)C(=O)c2sc3ccccc3c2Cl)CC1 [N′′′] showed a pEC50 of over 5.30. COc1ccc(CN(C(=O)c2sc3ccccc3c2Cl)[C@H]2CC[C@H](N)CC2)cc1-c1ccccc1 [F′] showed a pEC50 of over 5.00. For CN[C@H]1CC[C@H](N(Cc2ccccn2)C(=O)c2sc3c(F)ccc(F)c3c2Cl)CC1 [U′′′], the pEC50 was over 6.00. Work on CN[C@H]1CC[C@H](N(Cc2cncc(-c3cccnc3)c2)C(=O)c2sc3ccccc3c2Cl)CC1 [G′′′] yielded a pEC50 of over 5.30. Compound CN[C@H]1CC[C@H](N(Cc2cccc(N3CCOCC3)c2)C(=O)c2sc3ccccc3c2Cl)CC1 [W′] has a pEC50 of over 5.00.
